Here are results for 19 molecules from patent US9580390B2, “Indazole compounds as kinase inhibitors and method of treating cancer with same” (University Health Network, priority 2011, dated 2017).

Assay type in all cases: cell-based
The test system of test [1] is colon cancer cells (HCT116). Kind of test: Cancer cell line growth inhibition (SRB assay). The note with it: Homo sapiens, HCT-116, read-out: Cancer Cell Line GI50 Range HCT116.
Protocol: Breast cancer cells (MDA-MB-231), colon cancer cells (HCT116) and ovarian cancer cells (PA-1) were seeded (1000 to 4000 in 80 μl per well depending on the cell growth rate) into 96 well plates 24 hours before compound overlay. Compounds were prepared as 10 mM stock solutions in 100% DMSO which were diluted with DMEM (Dulbecco's Modified Eagle's Medium) cell growth Medium (Invitrogen, Burlington, ON, Canada) containing 10% FBS (Fetal Bovine Serum) to concentrations ranging from 50 nM to 250 μM. Aliquots (20 μl) from each concentration were overlaid to 80 μl of the pre-seeded cells in the 96 well plates to make final concentrations of 10 nM to 50 μM. The cells were cultured for 5 days before the Sulforhodamine B assay (SRB) was performed to determine the compound's cell growth inhibition activity.
Sulforhodamine B (purchased from Sigma, Oakville, ON, Canada) is a water-soluble dye that binds to the basic amino acids of the cellular proteins. Thus, colorimetric measurement of the bound dye provides an estimate of the total protein mass that is related to the cell number. the cells are fixed in situ by gently aspirating off the culture media and adding 50 μl ice cold 10% Trichloroacetic Acid (TCA) per well and incubate at 4° C. for 30-60 min. The plates are washed with H2O five times and allowed to air dry for 5 min. Addition of 50 μl 0.4% (w/v) SRB solution in 1% (v/v) acetic acid to each well and incubation for 30 min at RT completes the staining reaction. Following staining, plates are washed four times with 1% acetic acid to remove unbound dye and then allowed to air dry for 5 min. The stain is solubilized with 100 μl of 10 mM Tris pH 10.5 per well. Absorbance is read at 570 nm.
The percentage (%) of relative growth inhibition was calculated by comparing to DMSO treated only cells (100%). GI50's were determined for compounds with cytotoxic activity. The GI50 was calculated using GraphPad PRISM software (GraphPad Software, Inc., San Diego, Calif., USA).
For a further test, the system named is TICs (Ovarian 2393A). Kind of test: Ovarian tumor-initiating cell growth inhibition (Alamar Blue). The note with it: 144 h, 6 days, read-out: Tumor Initiating Cell GI50 Range Ovarain 2393A.
Test [2] has as its system ovarian cancer cells (PA-1). Kind of test: Cancer cell line growth inhibition (SRB assay). The conditions noted are these: read-out: Cancer Cell Line GI50 Range PA-1. In general terms: In SRB staining, fixed cells bind dye roughly in proportion to their protein.
In a further test the test system is TICs (Colon 12). Kind of test: Colon tumor-initiating cell growth inhibition (Alamar Blue). The conditions noted are these: 216 h, 9 days, read-out: Tumor Initiating Cell GI50 Range Colon 12.
The mark [3] stands for this setting: HCT116 colon cancer cells, SRB assay.
[4] abbreviates: PA-1 ovarian cancer cells, SRB assay.

Where two headings read alike, the source gives them in different places.

For the molecule `O=C(Nc1ccc2[nH]nc(-c3ccc(N4CCOCC4)cc3)c2c1)C(c1ccsc1)N1CCC1` (stereo not shown) [Example A172, 2-(azetidin-1-yl)-N-(3-(4-morpholinophenyl)-1H-indazol-5-yl)-2-(thiophen-3-yl)acetamide], the GI50 in test [1] (setting [3]) was below 100 nM; in the test with TICs (Ovarian 2393A) (ovarian TICs, Alamar Blue) it was below 100 nM; in test [2] (setting [4]) it was below 100 nM; in the test with TICs (Colon 12) (colon TICs, Alamar Blue), below 100 nM.
`CN1CCC(Oc2ccc(-c3n[nH]c4ccc(C(=O)NC(c5ccccn5)C5CC5)cc34)cc2Cl)CC1` (stereo not shown) [Example A198, 3-(3-chloro-4-((1-methylpiperidin-4-yl)oxy)phenyl)-N-(cyclopropyl(pyridin-2-yl)methyl)-1H-indazole-5-carboxamide]: the GI50 in test [1] (setting [3]) was below 100 nM; with TICs (Ovarian 2393A) (ovarian TICs, Alamar Blue), 100 to 500 nM; in test [2] (setting [4]), 100 to 500 nM; in the test on TICs (Colon 12) (colon TICs, Alamar Blue), 100 to 500 nM.
As for `CN1CCC(Oc2ccc(-c3n[nH]c4ccc(C(=O)NC(c5cccs5)C5CC5)cc34)cc2)CC1` (stereo not shown) [Example A147, N-(cyclopropyl(thiophen-2-yl)methyl)-3-(4-((1-methylpiperidin-4-yl)oxy)phenyl)-1H-indazole-5-carboxamide], the GI50 in test [1] (setting [3]) was below 100 nM; in the test on TICs (Ovarian 2393A) (ovarian TICs, Alamar Blue), below 100 nM; in test [2] (setting [4]), below 100 nM; in the test on TICs (Colon 12) (colon TICs, Alamar Blue) it was 100 to 500 nM.
As for `O=CN1CCC(Oc2ccc(-c3n[nH]c4ccc(C(=O)N[C@H](c5ncccc5Cl)C5CC5)cc34)cc2)CC1` [Example A212, (S)-N-((3-chloropyridin-2-yl)(cyclopropyl)methyl)-3-(4-((1-formylpiperidin-4-yl)oxy)phenyl)-1H-indazole-5-carboxamide], the GI50 was below 100 nM in test [1]; below 100 nM in the test with TICs (Ovarian 2393A) (Ovarian 2393A TICs); below 100 nM in test [2] (Homo sapiens, PA-1); 100 to 500 nM with TICs (Colon 12) (Colon 12 TICs).
As for `CN1CCC(Oc2ccc(-c3n[nH]c4ccc(C(=O)NC(c5ccccc5)C5CCCCC5)cc34)cc2)CC1` (stereo not shown) [Example A170, N-(cyclohexyl(phenyl)methyl)-3-(4-((1-methylpiperidin-4-yl)oxy)phenyl)-1H-indazole-5-carboxamide], the GI50 in test [1] (setting [3]) is above 500 nM; with TICs (Ovarian 2393A) (ovarian TICs, Alamar Blue), above 500 nM; in test [2] (setting [4]), above 500 nM; in the test on TICs (Colon 12) (colon TICs, Alamar Blue), above 500 nM.
On to `O=C(N[C@H](c1ncccc1Cl)C1CC1)c1ccc2[nH]nc(-c3ccc(OC4CCN(C5COC5)CC4)cc3)c2c1` [Example A216, (S)-N-((3-chloropyridin-2-yl)(cyclopropyl)methyl)-3-(4-((1-(oxetan-3-yl)piperidin-4-yl)oxy)phenyl)-1H-indazole-5-carboxamide], for which the GI50 in test [1] is below 100 nM; with TICs (Ovarian 2393A) (Ovarian 2393A TICs), below 100 nM; in test [2] (Homo sapiens, PA-1), below 100 nM; in the test with TICs (Colon 12) (Colon 12 TICs) it was below 100 nM.
With `CN1CCC(Oc2ccc(-c3n[nH]c4ccc(NC(=O)C(c5cccs5)N5CCCC5)cc34)cc2)CC1` (stereo not shown) [Example A91, N-(3-(4-((1-methylpiperidin-4-yl)oxy)phenyl)-1H-indazol-5-yl)-2-(pyrrolidin-1-yl)-2-(thiophen-2-yl)acetamide], the GI50 in test [1] (setting [3]) is below 100 nM; in the test with TICs (Ovarian 2393A) (ovarian TICs, Alamar Blue), below 100 nM; in test [2] (setting [4]), below 100 nM; in the test with TICs (Colon 12) (colon TICs, Alamar Blue), 100 to 500 nM.
For the molecule `O=CN1CCC(Oc2ccc(-c3n[nH]c4ccc(C(=O)NC(c5ccccn5)C5CC5)cc34)cc2)CC1` (stereo not shown) [Example A160, N-(cyclopropyl(pyridin-2-yl)methyl)-3-(4-((1-formylpiperidin-4-yl)oxy)phenyl)-1H-indazole-5-carboxamide], the GI50 in test [1] (setting [3]) was below 100 nM; in the test on TICs (Ovarian 2393A) (ovarian TICs, Alamar Blue), 100 to 500 nM; in test [2] (setting [4]), 100 to 500 nM; with TICs (Colon 12) (colon TICs, Alamar Blue) it was 100 to 500 nM.
Consider `CC(C)(O)C1CCN(c2ccc(-c3n[nH]c4ccc(NC(=O)C(c5ccsc5)N5CCC5)cc34)cc2)CC1` (stereo not shown) [Example A201, 2-(azetidin-1-yl)-N-(3-(4-(4-(2-hydroxypropan-2-yl)piperidin-1-yl)phenyl)-1H-indazol-5-yl)-2-(thiophen-3-yl)acetamide], for which the GI50 in test [1] (setting [3]) was below 100 nM; with TICs (Ovarian 2393A) (ovarian TICs, Alamar Blue), below 100 nM; in test [2] (setting [4]) it was below 100 nM; in the test on TICs (Colon 12) (colon TICs, Alamar Blue), below 100 nM.
In the case of `O=C(NC(c1ccccn1)C1CC1)c1ccc2[nH]nc(-c3ccc(OC4CCN(C5COC5)CC4)cc3)c2c1` (stereo not shown) [Example A171, N-(cyclopropyl(pyridin-2-yl)methyl)-3-(4-((1-(oxetan-3-yl)piperidin-4-yl)oxy)phenyl)-1H-indazole-5-carboxamide], the GI50 in test [1] (setting [3]) is below 100 nM; in the test with TICs (Ovarian 2393A) (ovarian TICs, Alamar Blue), below 100 nM; in test [2] (setting [4]), below 100 nM; in the test with TICs (Colon 12) (colon TICs, Alamar Blue), 100 to 500 nM.
Consider `O=CN1CCC(Oc2ccc(-c3n[nH]c4ccc(C(=O)N[C@H](c5ccccn5)C5CC5)cc34)cc2)CC1` [Example A204, (S)-N-(cyclopropyl(pyridin-2-yl)methyl)-3-(4-((1-formylpiperidin-4-yl)oxy)phenyl)-1H-indazole-5-carboxamide], for which the GI50 in test [1] (setting [3]) is below 100 nM; in the test with TICs (Ovarian 2393A) (ovarian TICs, Alamar Blue), below 100 nM; in test [2] (setting [4]), below 100 nM; in the test on TICs (Colon 12) (colon TICs, Alamar Blue), below 100 nM.
Turning to `CN1[C@@H]2CC[C@H]1C[C@@H](Oc1ccc(-c3n[nH]c4ccc(C(=O)NC(c5ccccc5)C5CC5)cc34)cc1)C2` (stereo partly shown) [Example A178], the GI50 in test [1] (setting [3]) was below 100 nM; in the test on TICs (Ovarian 2393A) (ovarian TICs, Alamar Blue), 100 to 500 nM; in test [2] (setting [4]), below 100 nM; in the test on TICs (Colon 12) (colon TICs, Alamar Blue), 100 to 500 nM.
As to `CC[C@@H](NC(=O)c1ccc2[nH]nc(-c3ccc(OC4CCN(C)CC4)cc3)c2c1)c1cccc(OC)c1` [Example A174, (R)-N-(1-(3-methoxyphenyl)propyl)-3-(4-((1-methylpiperidin-4-yl)oxy)phenyl)-1H-indazole-5-carboxamide], the GI50 was below 100 nM in test [1] (setting [3]); 100 to 500 nM in the test with TICs (Ovarian 2393A) (ovarian TICs, Alamar Blue); 100 to 500 nM in test [2] (setting [4]); 100 to 500 nM in the test on TICs (Colon 12) (colon TICs, Alamar Blue).
As to `O=CN1CCC(Oc2ccc(-c3n[nH]c4ccc(C(=O)NC(c5ccccc5F)C5CC5)cc34)cc2)CC1` (stereo not shown) [Example A182], the GI50 in test [1] (setting [3]) is below 100 nM; with TICs (Ovarian 2393A) (ovarian TICs, Alamar Blue) it was below 100 nM; in test [2] (setting [4]) it was below 100 nM; with TICs (Colon 12) (colon TICs, Alamar Blue), below 100 nM.
In the case of `COC[C@@H](NC(=O)c1ccc2[nH]nc(-c3ccc(OC4CCN(C)CC4)cc3)c2c1)c1ccccc1` [Example A173, (S)-N-(2-methoxy-1-phenylethyl)-3-(4-((1-methylpiperidin-4-yl)oxy)phenyl)-5-carboxamide], the concentration for 50% growth inhibition (GI50) is 100 to 500 nM in test [1] (setting [3]); 100 to 500 nM in the test on TICs (Ovarian 2393A) (ovarian TICs, Alamar Blue); 100 to 500 nM in test [2] (setting [4]); above 500 nM in the test on TICs (Colon 12) (colon TICs, Alamar Blue).
With `CN1CCC(Oc2ccc(-c3n[nH]c4ccc(NC(=O)C(c5ccsc5)N5CCC5)cc34)cc2)CC1` (stereo not shown) [Example A191, 2-(azetidin-1-yl)-N-(3-(4-((1-methylpiperidin-4-yl)oxy)phenyl)-1H-indazol-5-yl)-2-(thiophen-3-yl)acetamide], the GI50 in test [1] (setting [3]) is below 100 nM; in the test with TICs (Ovarian 2393A) (ovarian TICs, Alamar Blue) it was below 100 nM; in test [2] (setting [4]), below 100 nM; in the test with TICs (Colon 12) (colon TICs, Alamar Blue), 100 to 500 nM.
As for `CC(C)(O)C1CCN(c2ccc(-c3n[nH]c4ccc(C(=O)NC(c5ccccn5)C5CC5)cc34)cc2)CC1` (stereo not shown) [Example A180, N-(cyclopropyl(pyridin-2-yl)methyl)-3-(4-(4-(2-hydroxypropan-2-yl)piperidin-1-yl)phenyl)-1H-indazole-5-carboxamide], the GI50 is below 100 nM in test [1] (setting [3]); 100 to 500 nM in the test with TICs (Ovarian 2393A) (ovarian TICs, Alamar Blue); 100 to 500 nM in test [2] (setting [4]); 100 to 500 nM in the test on TICs (Colon 12) (colon TICs, Alamar Blue).
Take `COc1ccccc1C(NC(=O)c1ccc2[nH]nc(-c3ccc(OC4CCN(C)CC4)cc3)c2c1)C1CC1` (stereo not shown) [Example A151, N-(cyclopropyl(2-methoxyphenyl)methyl)-3-(4-((1-methylpiperidin-4-yl)oxy)phenyl)-1H-indazole-5-carboxamide]: the GI50 was below 100 nM in test [1] (setting [3]); 100 to 500 nM in the test with TICs (Ovarian 2393A) (ovarian TICs, Alamar Blue); 100 to 500 nM in test [2] (setting [4]); 100 to 500 nM in the test with TICs (Colon 12) (colon TICs, Alamar Blue).
In the case of `O=C(NC(c1ccccc1)C1CC1)c1ccc2[nH]nc(-c3ccc(OC4CCN(C5COC5)CC4)cc3)c2c1` (stereo not shown) [Example A157, N-(cyclopropyl(phenyl)methyl)-3-(4-((1-(oxetan-3-yl)piperidin-4-yl)oxy)phenyl)-1H-indazole-5-carboxamide], the GI50 in test [1] (setting [3]) fell in the range of 100 to 500 nM; in the test on TICs (Ovarian 2393A) (ovarian TICs, Alamar Blue), 100 to 500 nM; in test [2] (setting [4]), 100 to 500 nM; in the test on TICs (Colon 12) (colon TICs, Alamar Blue), 100 to 500 nM.

The GI50 is the concentration at which growth is held to half of that of the control.
